Results on one molecule are retold here after the NIST ThermoML archive (doi:10.1016/j.jct.2018.01.019).

Each structure is given as a SMILES string. Numbers after ± are expanded uncertainties.

The conditions of the data set: Crystal 2; DSC.

Regarding `O=[Si]=O` [silicon dioxide], the Triple point temperature came out at 848 ± 2 K.
